Measurements taken from patent US20170172955A1, “Treatment of Mixed Dyslipidemia” (priority 2015, published 2017).
Like-named read-outs stand apart in the source and are kept apart here.

Assays:
[1] = Musculoskeletal adverse events, study A4141001
CYP1A2 = CYP1A2 (Homo sapiens, UniProt P05177); assay: biochemical
Description: (§1) Human livers, HLM141, HLM143, and HLM144 were selected from the University of Washington Human Liver Bank for this study. […] The actual concentrations used for each of the other probes are specified below. […] The seven isoforms and the metabolic pathway of each of the probes used to monitor specific isoform activity are listed below.
CYP1A2: The 6-hydroxylation of high concentrations (0.5 mM) of (R)-warfarin. The reaction is monitored by quantitative gas chromatographic/mass spectrometric (GC/MS) using 6-hydroxywarfarin-(d5-phenyl) as the internal standard.

plasma fibrinogen = assay: Fibrinogen levels in rats (electro immunoassay); type: in vivo, rat; conditions: male Sprague-Dawley rats
Description: Fifty-Six male Sprague-Dawley rats were obtained from Charles River Laboratories. All animals were allowed normal rat chow (Ralston-Purina) and water ad libitum in temperature-controlled rooms, under a 12-hour light, 12-hour dark cycle beginning with lights on at 6 AM. Rats were distributed to 7 groups of 8 rats per group. […] Control animals received vehicle alone. […] CI-719 is gemfibrozil. […] The plasma fibrinogen plasma levels were determined by electro immunoassay. […] Data are shown in FIG. 12 as mean±SEM of as percent of control fibrinogen levels. *p<0.001, two-sided unpaired t-test, compared to control.

[2] = tested on: STAM model of non-alcoholic steatohepatitis (NASH); conditions: for Sirius Red positive area (mean ± SD) / NAFLD Activity score, NAS (mean ± SD) / Fasting blood glucose (mean ± SD) / Plasma insulin (mean ± SD) / Liver hydroxyl-proline (mean ± SD) / Liver triglyceride (mean ± SD) / Non-fasting blood glucose (mean ± SD) / Plasma ALT (mean ± SD) / Plasma AST (mean ± SD) / Plasma ketone body (mean ± SD): STAM mice; for Fasting blood glucose (mean ± SD) / Plasma insulin (mean ± SD): Day 18, 8 hours of fasting; for Liver hydroxyl-proline (mean ± SD) / Liver triglyceride (mean ± SD) / Non-fasting blood glucose (mean ± SD) / Plasma ALT (mean ± SD) / Plasma AST (mean ± SD) / Plasma ketone body (mean ± SD): termination (Day 21)
Description: Telmisartan (Micardis®) was purchased from Boehringer Ingelheim GmbH (Germany) and dissolved in pure water.
Telmisartan was administered at a dose of 10 mg/kg once daily.
Measurement of whole blood and plasma biochemistry: Eight-hour fasting blood samples were collected from facial vein at 3 days prior to termination.
Eight-hour fasting blood glucose was measured in whole blood using Life Check (EIDIA Co. Ltd., Japan). For plasma biochemistry, eight-hour fasting blood was collected in polypropylene tubes with anticoagulant (Novo-Heparin, Mochida Pharmaceutical, Japan) and centrifuged at 1,000×g for 15 minutes at 4° C. The supernatant was collected and stored at −80° C. until use. Plasma insulin levels were quantified by Ultra Sensitive Mouse Insulin ELISA kit (Morinaga Institute of Biological Science, Inc., Japan).
On the day of termination, non-fasting blood glucose was measured in whole blood using Life Check. For plasma biochemistry, non-fasting blood was collected in polypropylene tubes with anticoagulant (Novo-Heparin) and centrifuged at 1,000×g for 15 minutes at 4° C. The supernatant was collected and stored at −80° C. until use. Plasma ALT, AST, ALP, GGT, BUN, creatinine and total bilirubin levels were measured by FUJI DRI-CHEM 7000 (Fujifilm Corporation, Japan). Plasma ketone body levels were quantified by EnzyChrom™ Ketone Body Assay Kit (BioAssay Systems, USA). […]
Histological analyses: For HE staining, sections were cut from paraffin blocks of liver tissue prefixed in Bouin's solution and stained with Lillie-Mayer's Hematoxylin (Muto Pure Chemicals Co., Ltd., Japan) and eosin solution (Wako Pure Chemical Industries). […] To visualize collagen deposition, Bouin's fixed liver sections were stained using picro-Sirius red solution (Waldeck, Germany). […]
Statistical analyses were performed using Bonferroni Multiple Comparison Test on GraphPad Prism 6 (GraphPad Software Inc., USA). […] Results were expressed as mean±SD.
The viability, clinical signs and behavior were monitored daily. Body weight was recorded before the treatment. […] The animals were sacrificed by exsanguination through direct cardiac puncture under isoflurane anesthesia (Pfizer Inc.) at 9 weeks of age.

CYP2E1 = CYP2E1 (Homo sapiens, UniProt P05181); assay: biochemical
CYP2E1, sequence (P05181 whole entry): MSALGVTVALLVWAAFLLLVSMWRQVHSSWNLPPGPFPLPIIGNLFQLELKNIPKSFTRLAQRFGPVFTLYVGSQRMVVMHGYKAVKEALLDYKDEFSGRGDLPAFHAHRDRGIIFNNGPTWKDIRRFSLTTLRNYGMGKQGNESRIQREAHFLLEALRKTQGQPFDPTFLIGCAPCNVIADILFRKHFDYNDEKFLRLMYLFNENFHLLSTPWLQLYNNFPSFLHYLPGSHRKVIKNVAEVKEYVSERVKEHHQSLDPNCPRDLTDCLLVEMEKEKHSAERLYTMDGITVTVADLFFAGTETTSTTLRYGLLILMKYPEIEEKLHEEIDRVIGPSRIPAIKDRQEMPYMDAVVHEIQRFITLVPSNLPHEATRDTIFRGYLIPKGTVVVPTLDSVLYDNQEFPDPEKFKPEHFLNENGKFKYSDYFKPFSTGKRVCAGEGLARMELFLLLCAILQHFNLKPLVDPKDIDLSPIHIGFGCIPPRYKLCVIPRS
Description: as §1
CYP2E1: The formation of p-nitrocatechol from p-nitrophenol (40 μM). Amounts of product formed are monitored by HPLC.

[3] = study A4141001, patient type IIa
[4] = study A4141001, patient type IIa + IIb
[5] = study A4141001, patient type IIb
[6] = gemcabene 30 mg/kg PO QD, n = 8
[7] = gemcabene 100 mg/kg PO QD, n = 8
[8] = gemcabene 300 mg/kg PO QD, n = 8

CYP1A2, sequence (P05177 whole entry, canonical isoform): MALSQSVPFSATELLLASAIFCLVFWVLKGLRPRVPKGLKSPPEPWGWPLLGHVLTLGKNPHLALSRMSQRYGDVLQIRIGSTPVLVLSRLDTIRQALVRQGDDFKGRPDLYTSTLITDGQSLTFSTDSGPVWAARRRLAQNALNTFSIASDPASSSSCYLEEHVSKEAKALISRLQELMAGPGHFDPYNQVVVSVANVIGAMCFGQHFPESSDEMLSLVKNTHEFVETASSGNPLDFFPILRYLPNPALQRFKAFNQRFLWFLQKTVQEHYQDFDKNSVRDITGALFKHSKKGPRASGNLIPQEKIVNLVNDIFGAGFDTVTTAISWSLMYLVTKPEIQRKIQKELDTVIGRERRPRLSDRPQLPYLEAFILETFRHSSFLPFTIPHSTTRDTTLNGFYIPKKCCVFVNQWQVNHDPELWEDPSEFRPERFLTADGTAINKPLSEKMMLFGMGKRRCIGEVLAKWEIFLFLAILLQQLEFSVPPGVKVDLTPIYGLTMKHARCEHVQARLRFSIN

CC(C)(CCCCOCCCCC(C)(C)C(=O)O)C(=O)O [Gemcabene, 6,6′-oxybis(2,2-dimethylhexanoic acid)]
% of patients experiencing a musculoskeletal adverse event [1, 3]: 0.0% | No = number of muscle skeletal adverse events [1, 3]: 0 | % of patients experiencing a musculoskeletal adverse event [1, 4]: 0.0% | No = number of muscle skeletal adverse events [1, 4]: 0 | % of patients experiencing a musculoskeletal adverse event [1, 5]: 0.0% | No = number of muscle skeletal adverse events [1, 5]: 0 | IC50 (CYP1A2): > 1500 µM | IC50 (CYP1A2; human, microsomes): > 1500 µM | reduction in plasma fibrinogen levels compared with control (plasma fibrinogen; 30 mg/kg/day oral, 14 days): 52% | reduction in plasma fibrinogen levels compared with control (plasma fibrinogen; 100 mg/kg/day oral, 14 days (PD 72953)): 57% | Sirius Red positive area (mean ± SD) ([2]; gemcabene 30 mg/kg PO QD 6-9 wks): 0.56 ± 0.18% | NAFLD Activity score, NAS (mean ± SD) ([2]; gemcabene 30 mg/kg PO QD 6-9 wks, n = 8): 3.4 ± 1.1 | Fasting blood glucose (mean ± SD) ([2]; gemcabene 30 mg/kg PO QD): 437 ± 42 mg/dL | Plasma insulin (mean ± SD) ([2]; gemcabene 30 mg/kg PO QD): 0.13 ± 0.04 ng/mL | Liver hydroxyl-proline (mean ± SD) ([2]; gemcabene 30 mg/kg PO QD): 0.66 ± 0.12 μg/mg total protein | Liver triglyceride (mean ± SD) ([2]; gemcabene 30 mg/kg PO QD): 49.2 ± 8.6 mg/g liver | Non-fasting blood glucose (mean ± SD) ([2]; gemcabene 30 mg/kg PO QD): 607 ± 48 mg/dL | Plasma ALT (mean ± SD) ([2]; gemcabene 30 mg/kg PO QD): 41 ± 15 U/L | Plasma AST (mean ± SD) ([2]; gemcabene 30 mg/kg PO QD): 100 ± 44 U/L | Plasma ketone body (mean ± SD) ([2]; gemcabene 30 mg/kg PO QD): 9.43 ± 2.35 mM | Sirius Red positive area (mean ± SD) ([2]; gemcabene 100 mg/kg PO QD 6-9 wks): 0.53 ± 0.18% | NAFLD Activity score, NAS (mean ± SD) ([2]; gemcabene 100 mg/kg PO QD 6-9 wks, n = 8): 3.6 ± 1.4 | Fasting blood glucose (mean ± SD) ([2]; gemcabene 100 mg/kg PO QD): 441 ± 46 mg/dL | Plasma insulin (mean ± SD) ([2]; gemcabene 100 mg/kg PO QD): 0.17 ± 0.06 ng/mL | Liver hydroxyl-proline (mean ± SD) ([2]; gemcabene 100 mg/kg PO QD): 0.74 ± 0.38 μg/mg total protein | Liver triglyceride (mean ± SD) ([2]; gemcabene 100 mg/kg PO QD): 58.4 ± 14.5 mg/g liver | Non-fasting blood glucose (mean ± SD) ([2]; gemcabene 100 mg/kg PO QD): 653 ± 53 mg/dL | Plasma ALT (mean ± SD) ([2]; gemcabene 100 mg/kg PO QD): 27 ± 7 U/L | Plasma AST (mean ± SD) ([2]; gemcabene 100 mg/kg PO QD): 88 ± 32 U/L | Plasma ketone body (mean ± SD) ([2]; gemcabene 100 mg/kg PO QD): 5.75 ± 3.24 mM | Sirius Red positive area (mean ± SD) ([2]; gemcabene 300 mg/kg PO QD 6-9 wks): 0.59 ± 0.16% | NAFLD Activity score, NAS (mean ± SD) ([2]; gemcabene 300 mg/kg PO QD 6-9 wks, n = 8): 2.5 ± 0.8 | Fasting blood glucose (mean ± SD) ([2]; gemcabene 300 mg/kg PO QD): 407 ± 15 mg/dL | Plasma insulin (mean ± SD) ([2]; gemcabene 300 mg/kg PO QD): 0.13 ± 0.04 ng/mL | Liver hydroxyl-proline (mean ± SD) ([2]; gemcabene 300 mg/kg PO QD): 0.70 ± 0.10 μg/mg total protein | Liver triglyceride (mean ± SD) ([2]; gemcabene 300 mg/kg PO QD): 56.0 ± 13.9 mg/g liver | Non-fasting blood glucose (mean ± SD) ([2]; gemcabene 300 mg/kg PO QD): 638 ± 63 mg/dL | Plasma ALT (mean ± SD) ([2]; gemcabene 300 mg/kg PO QD): 32 ± 14 U/L | Plasma AST (mean ± SD) ([2]; gemcabene 300 mg/kg PO QD): 147 ± 122 U/L | Plasma ketone body (mean ± SD) ([2]; gemcabene 300 mg/kg PO QD): 5.68 ± 3.08 mM | number of mice with Hepatocyte ballooning score 0 (None) [2, 6]: 4 | number of mice with Hepatocyte ballooning score 1 (Few balloon cells) [2, 6]: 2 | number of mice with Hepatocyte ballooning score 2 (Many cells/prominent ballooning) [2, 6]: 2 | number of mice with Lobular inflammation score 0 (No foci) [2, 6]: 1 | number of mice with Lobular inflammation score 1 (<2 foci/200x) [2, 6]: 2 | number of mice with Lobular inflammation score 2 (2-4 foci/200x) [2, 6]: 4 | number of mice with Lobular inflammation score 3 (>4 foci/200x) [2, 6]: 1 | number of mice with Steatosis score 1 (5-33%) [2, 6]: 8 | number of mice with Hepatocyte ballooning score 0 (None) [2, 7]: 1 | number of mice with Hepatocyte ballooning score 1 (Few balloon cells) [2, 7]: 4 | number of mice with Hepatocyte ballooning score 2 (Many cells/prominent ballooning) [2, 7]: 3 | number of mice with Lobular inflammation score 0 (No foci) [2, 7]: 2 | number of mice with Lobular inflammation score 1 (<2 foci/200x) [2, 7]: 1 | number of mice with Lobular inflammation score 2 (2-4 foci/200x) [2, 7]: 5 | number of mice with Steatosis score 1 (5-33%) [2, 7]: 8 | number of mice with Hepatocyte ballooning score 0 (None) [2, 8]: 4 | number of mice with Hepatocyte ballooning score 1 (Few balloon cells) [2, 8]: 3 | number of mice with Hepatocyte ballooning score 2 (Many cells/prominent ballooning) [2, 8]: 1 | number of mice with Lobular inflammation score 0 (No foci) [2, 8]: 2 | number of mice with Lobular inflammation score 1 (<2 foci/200x) [2, 8]: 2 | number of mice with Lobular inflammation score 2 (2-4 foci/200x) [2, 8]: 4 | number of mice with Steatosis score 0 (<5%) [2, 8]: 3 | number of mice with Steatosis score 1 (5-33%) [2, 8]: 5 | IC50 (CYP2E1): > 1500 µM | activity slightly enhanced (CYP2E1; human, 1500 μM): about 20% | IC50 (CYP2E1; human, microsomes): > 1500 µM
